Results reported in US11718604B2, “4-amino-6-(1,3-benzodioxole)picolinates and their use as herbicides” (Dow AgroSciences LLC, priority 2018, dated 2023).

Assays:
Format in all cases: in vivo
[1] = test system: ABUTH: velvetleaf (Abutilon theophrasti); assay: Post-emergent herbicidal test, velvetleaf; conditions: post-emergence, 336 h, 14 days after application, read-out: Visual Growth Reduction (%) 14 Days After Application ABUTH
Protocol: (§1) Post-Emergent Test: Seeds or nutlets of the desired test plant species were planted in Sun Gro Metro-Mix® 360 planting mixture, which typically has a pH of 6.0 to 6.8 and an organic matter content of about 30 percent, in plastic pots with a surface area of 64 square centimeters (cm^2). When required to ensure good germination and healthy plants, a fungicide treatment and/or other chemical or physical treatment was applied. The plants were grown for 7-21 d in a greenhouse with an approximate 15 h photoperiod which was maintained at about 23-29° C. during the day and 22-28° C. during the night. Nutrients and water were added on a regular basis and supplemental lighting was provided with overhead metal halide 1000-Watt lamps as necessary. The plants were employed for testing when they reached the first or second true leaf stage.
(§2) A weighed amount, determined by the highest rate to be tested, of each test compound was placed in a 25 mL glass vial and was dissolved in 4 mL of a 97:3 v/v mixture of acetone and DMSO to obtain concentrated stock solutions. […] The concentrated stock solutions obtained were diluted with 20 mL of an aqueous mixture containing acetone, water, isopropyl alcohol, DMSO, Atplus 411F crop oil concentrate, and Triton® X-155 surfactant in a 48.5:39:10:1.5:1.0:0.02 v/v ratio to obtain spray solutions containing the highest application rates. Additional application rates were obtained by serial dilution of 12 mL of the high rate solution into a solution containing 2 mL of a 97:3 v/v mixture of acetone and DMSO and 10 mL of an aqueous mixture containing acetone, water, isopropyl alcohol, DMSO, Atplus 411F crop oil concentrate, and Triton X-155 surfactant in a 48.5:39:10:1.5:1.0:0.02 v/v ratio to obtain ½×, ¼×, ⅛× and 1/16× rates of the high rate. Compound requirements are based upon a 12 mL application volume at a rate of 187 liters per hectare (L/ha). Formulated compounds were applied to the plant material with an overhead Mandel track sprayer equipped with 8002E nozzles calibrated to deliver 187 L/ha over an application area of 0.503 square meters at a spray height of 18 inches (43 cm) above the average plant canopy height. Control plants were sprayed in the same manner with the solvent blank.
(§3) The treated plants and control plants were placed in a greenhouse as described above and watered by subirrigation to prevent wash-off of the test compounds. After 14 d, the condition of the test plants as compared with that of the untreated plants was determined visually and scored on a scale of 0 to 100 percent where 0 corresponds to no injury and 100 corresponds to complete kill.

[2] = test system: IPOHE: ivyleaf morningglory (Ipomoea hederacea); assay: Post-emergent herbicidal test, ivyleaf morningglory; conditions: post-emergence, 336 h, 14 days after application, read-out: Visual Growth Reduction (%) 14 Days After Application IPOHE
Protocol: as §1, §2, §3

[3] = test system: CIRAR: Canada thistle (Cirsium arvense); assay: Post-emergent herbicidal test, Canada thistle; conditions: post-emergence, 336 h, 14 days after application, read-out: Visual Growth Reduction (%) 14 Days After Application CIRAR
Protocol: as §1, §2, §3

[4] = test system: SORVU: shattercane (Sorghum bicolor); assay: Post-emergent herbicidal test, shattercane; conditions: post-emergence, 336 h, 14 days after application, read-out: Visual Growth Reduction (%) 14 Days After Application SORVU
Protocol: as §1, §2, §3

[5] = test system: EPHHL: wild poinsettia (Euphorbia heterophylla); assay: Post-emergent herbicidal test, wild poinsettia; conditions: post-emergence, 336 h, 14 days after application, read-out: Visual Growth Reduction (%) 14 Days After Application EPHHL
Protocol: as §1, §2, §3

[6] = test system: ECHCG: barnyardgrass (Echinochloa crus-galli); assay: Post-emergent herbicidal test, barnyardgrass; conditions: post-emergence, 336 h, 14 days after application, read-out: Visual Growth Reduction (%) 14 Days After Application ECHCG
Protocol: as §1, §2, §3

[7] = test system: BRSNN: oilseed rape, canola (Brassica napus); assay: Post-emergent herbicidal test, oilseed rape; conditions: post-emergence, 336 h, 14 days after application, read-out: Visual Growth Reduction (%) 14 Days After Application BRSNN
Protocol: as §1, §2, §3

[8] = test system: DIGSA: large crabgrass (Digitaria sanguinalis); assay: Post-emergent herbicidal test, large crabgrass; conditions: post-emergence, 336 h, 14 days after application, read-out: Visual Growth Reduction (%) 14 Days After Application DIGSA
Protocol: as §1, §2, §3

[9] = test system: SETFA: giant foxtail (Setaria faberi); assay: Post-emergent herbicidal test, giant foxtail; conditions: post-emergence, 336 h, 14 days after application, read-out: Visual Growth Reduction (%) 14 Days After Application SETFA
Protocol: as §1, §2, §3

[10] = test system: VIOTR: wild violet (Viola tricolor); assay: Post-emergent herbicidal test, wild violet; conditions: post-emergence, 336 h, 14 days after application, read-out: Visual Growth Reduction (%) 14 Days After Application VIOTR
Protocol: as §1, §2, §3

[11] = test system: CYPES: yellow nutsedge (Cyperus esculentus); assay: Post-emergent herbicidal test, yellow nutsedge; conditions: post-emergence, 336 h, 14 days after application, read-out: Visual Growth Reduction (%) 14 Days After Application CYPES
Protocol: as §1, §2, §3

Nc1c(F)c(-c2ccc(I)c3c2OC(F)(F)O3)nc(C(=O)O)c1Cl [Compound 12]
pest or weed control at 17.5 g/ha ([1]; 17.5 g ai/ha): 0% | pest or weed control at 35 g/ha ([1]; 35 g ai/ha): 0% | pest or weed control at 70 g/ha ([1]; 70 g ai/ha): 70% | pest or weed control at 140 g/ha ([1]; 140 g ai/ha): 80% | pest or weed control at 17.5 g/ha ([2]; 17.5 g ai/ha): 0% | pest or weed control at 35 g/ha ([2]; 35 g ai/ha): 0% | pest or weed control at 70 g/ha ([2]; 70 g ai/ha): 0% | pest or weed control at 140 g/ha ([2]; 140 g ai/ha): 0% | pest or weed control at 17.5 g/ha ([3]; 17.5 g ai/ha): 65% | pest or weed control at 35 g/ha ([3]; 35 g ai/ha): 80% | pest or weed control at 70 g/ha ([3]; 70 g ai/ha): 85% | pest or weed control at 140 g/ha ([3]; 140 g ai/ha): 85% | pest or weed control at 17.5 g/ha ([4]; 17.5 g ai/ha): 0% | pest or weed control at 35 g/ha ([4]; 35 g ai/ha): 0% | pest or weed control at 70 g/ha ([4]; 70 g ai/ha): 0% | pest or weed control at 140 g/ha ([4]; 140 g ai/ha): 0% | pest or weed control at 17.5 g/ha ([5]; 17.5 g ai/ha): 0% | pest or weed control at 35 g/ha ([5]; 35 g ai/ha): 0% | pest or weed control at 70 g/ha ([5]; 70 g ai/ha): 0% | pest or weed control at 140 g/ha ([5]; 140 g ai/ha): 0% | pest or weed control at 17.5 g/ha ([6]; 17.5 g ai/ha): 0% | pest or weed control at 35 g/ha ([6]; 35 g ai/ha): 0% | pest or weed control at 70 g/ha ([6]; 70 g ai/ha): 0% | pest or weed control at 140 g/ha ([6]; 140 g ai/ha): 0% | pest or weed control at 17.5 g/ha ([7]; 17.5 g ai/ha): 70% | pest or weed control at 35 g/ha ([7]; 35 g ai/ha): 80% | pest or weed control at 70 g/ha ([7]; 70 g ai/ha): 90% | pest or weed control at 140 g/ha ([7]; 140 g ai/ha): 100% | pest or weed control at 17.5 g/ha ([8]; 17.5 g ai/ha): 0% | pest or weed control at 35 g/ha ([8]; 35 g ai/ha): 0% | pest or weed control at 70 g/ha ([8]; 70 g ai/ha): 0% | pest or weed control at 140 g/ha ([8]; 140 g ai/ha): 0% | pest or weed control at 17.5 g/ha ([9]; 17.5 g ai/ha): 0% | pest or weed control at 35 g/ha ([9]; 35 g ai/ha): 0% | pest or weed control at 70 g/ha ([9]; 70 g ai/ha): 0% | pest or weed control at 140 g/ha ([9]; 140 g ai/ha): 0% | pest or weed control at 17.5 g/ha ([10]; 17.5 g ai/ha): 0% | pest or weed control at 35 g/ha ([10]; 35 g ai/ha): 0% | pest or weed control at 70 g/ha ([10]; 70 g ai/ha): 0% | pest or weed control at 140 g/ha ([10]; 140 g ai/ha): 0% | pest or weed control at 17.5 g/ha ([11]; 17.5 g ai/ha): 0% | pest or weed control at 35 g/ha ([11]; 35 g ai/ha): 0% | pest or weed control at 70 g/ha ([11]; 70 g ai/ha): 0% | pest or weed control at 140 g/ha ([11]; 140 g ai/ha): 0%
